Results as given in ChEMBL document CHEMBL4251601 (Eur J Med Chem, 2018).

What was measured:
[1] = biological target: Cytoplasmic tyrosine-protein kinase BMX (Homo sapiens) (UniProt P51813); assay: Inhibition of recombinant full length human His-tagged BMX expressed in baculovirus expression system at 0.1 uM by TR-FRET assay relative to control
[2] = biological target: Platelet-derived growth factor receptor beta (Homo sapiens) (UniProt P09619); assay: Inhibition of recombinant human His-tagged PDGFRbeta cytoplasmic domain expressed in baculovirus expression system at 0.1 uM by Z'-Lyte assay relative to control
[3] = biological target: Ephrin type-A receptor 2 (Homo sapiens) (UniProt P29317); assay: Inhibition of recombinant human GST-tagged EPHA2 cytoplasmic domain expressed in baculovirus expression system at 1 uM by Z'-Lyte assay relative to control
[4] = biological target: Tyrosine-protein kinase ITK/TSK (Homo sapiens) (UniProt Q08881); assay: Inhibition of recombinant full length human GST-tagged ITK expressed in baculovirus expression system at 0.1 uM by TR-FRET assay relative to control
[5] = biological target: Proto-oncogene tyrosine-protein kinase Src (Homo sapiens) (UniProt P12931); assay: Inhibition of recombinant human full length His-tagged SRC expressed in baculovirus expression system at 0.1 uM by Z'-Lyte assay relative to control
[6] = biological target: Receptor tyrosine-protein kinase erbB-2 (Homo sapiens) (UniProt P04626); assay: Inhibition of recombinant human His-tagged ERBB2 cytoplasmic domain expressed in baculovirus expression system at 0.1 uM by Z'-Lyte assay relative to control
[7] = biological target: Tyrosine-protein kinase receptor TYRO3 (Homo sapiens) (UniProt Q06418); assay: Inhibition of recombinant human GST-tagged TYRO3 cytoplasmic domain (451 to 890 residues) expressed in baculovirus expression system at 1 uM by Z'-Lyte assay relative to control
[8] = biological target: Mitogen-activated protein kinase kinase kinase 14 (Homo sapiens, UniProt Q99558); assay: Inhibition of recombinant human GST-tagged NIK expressed in baculovirus expression system at 1 uM by Z'-Lyte assay relative to control
[9] = system: U-87 MG; assay: Antitumor activity against luciferase-fused human U87MG cells orthotopically xenografted in nude mouse assessed as tumor growth inhibition at 50 mg/kg, po qd for 4 weeks by bioluminescence imaging relative to control; assay type: functional, U-87MG ATCC; details: 672 h, read-out: TGI
[10] = biological target: Calcium/calmodulin-dependent protein kinase type II subunit beta (Homo sapiens) (UniProt Q13554); assay: Inhibition of recombinant full length human His-tagged CAMK2B expressed in baculovirus expression system at 0.1 uM by Z'-Lyte assay relative to control
[11] = Half life in Sprague-Dawley rat at 2 mg/kg, iv administered as single dose by LC-MS/MS analysis; assay type: ADME, organism-based; details: in vivo
[12] = system: U-87 MG; assay: Antitumor activity against luciferase-fused human U87MG cells orthotopically xenografted in nude mouse assessed as increase in mouse life span at 12.5 mg/kg, po qd for 5 weeks relative to control; assay type: functional, U-87MG ATCC; details: 840 h
[13] = system: Proto-oncogene tyrosine-protein kinase receptor Ret (Homo sapiens), P07949 [V804L]; assay: Inhibition of recombinant human GST-tagged RET V804L mutant expressed in baculovirus expression system at 1 uM by Z'-Lyte assay relative to control
[14] = biological target: Phosphatidylinositol 4,5-bisphosphate 3-kinase catalytic subunit delta isoform (Homo sapiens) (UniProt O00329); assay: Inhibition of PI3K delta (unknown origin) at 0.1 uM by ADP-Glo assay relative to control
[15] = biological target: Serine/threonine-protein kinase 26 (Homo sapiens) (UniProt Q9P289); assay: Inhibition of recombinant human full length GST-tagged MST4 expressed in baculovirus expression system at 1 uM by Z'-Lyte assay relative to control
[16] = biological target: Tyrosine-protein kinase BTK (Homo sapiens) (UniProt Q06187); assay: Inhibition of recombinant full length human His-tagged BTK expressed in baculovirus expression system at 0.1 uM by TR-FRET assay relative to control
[17] = biological target: Protein kinase C beta type (Homo sapiens) (UniProt P05771); assay: Inhibition of PKCbeta2 (unknown origin) at 1 uM by Z'-Lyte assay relative to control
[18] = biological target: Dual specificity protein kinase CLK1 (Homo sapiens) (UniProt P49759); assay: Inhibition of recombinant human GST-tagged CLK1 expressed in Escherichia coli at 0.1 uM by Z'-Lyte assay relative to control
[19] = biological target: Tyrosine-protein kinase receptor TYRO3 (Homo sapiens) (UniProt Q06418); assay: Inhibition of recombinant human GST-tagged TYRO3 cytoplasmic domain (451 to 890 residues) expressed in baculovirus expression system at 0.1 uM by Z'-Lyte assay relative to control
[20] = Tmax in CD-1 mouse plasma at 10 mg/kg, po administered as single dose by LC-MS/MS analysis; assay type: ADME, organism-based
[21] = biological target: Receptor tyrosine-protein kinase erbB-2 (Homo sapiens) (UniProt P04626); assay: Inhibition of recombinant human His-tagged ERBB2 cytoplasmic domain expressed in baculovirus expression system at 1 uM by Z'-Lyte assay relative to control
[22] = biological target: Serine/threonine-protein kinase PLK1 (Homo sapiens) (UniProt P53350); assay: Inhibition of recombinant human full length His-tagged PLK1 expressed in baculovirus expression system at 0.1 uM by Z'-Lyte assay relative to control
[23] = biological target: Hepatocyte growth factor receptor (Homo sapiens) (UniProt P08581); assay: Inhibition of recombinant human His-tagged c-Met cytoplasmic domain expressed in baculovirus expression system at 0.1 uM by Z'-Lyte assay relative to control
[24] = biological target: RAC-beta serine/threonine-protein kinase (Homo sapiens) (UniProt P31751); assay: Inhibition of recombinant full length human His-tagged AKT2 expressed in baculovirus expression system at 1 uM by TR-FRET assay relative to control
[25] = biological target: Insulin receptor (Homo sapiens) (UniProt P06213); assay: Inhibition of recombinant human GST-tagged INSR cytoplasmic domain expressed in baculovirus expression system at 0.1 uM by Z'-Lyte assay relative to control
[26] = biological target: Proto-oncogene tyrosine-protein kinase Src (Homo sapiens) (UniProt P12931); assay: Inhibition of recombinant human full length His-tagged SRC expressed in baculovirus expression system at 1 uM by Z'-Lyte assay relative to control
[27] = biological target: Proto-oncogene tyrosine-protein kinase receptor Ret (Homo sapiens) (UniProt P07949); assay: Inhibition of recombinant human GST-tagged RET cytoplasmic domain (658 to 1114 residues) expressed in baculovirus expression system at 1 uM by Z'-Lyte assay relative to control
[28] = biological target: Tyrosine-protein kinase JAK1 (Homo sapiens) (UniProt P23458); assay: Inhibition of recombinant human GST-tagged JAK1 expressed in baculovirus expression system at 0.1 uM by TR-FRET assay relative to control
[29] = system: U-87 MG; assay: Antitumor activity against luciferase-fused human U87MG cells orthotopically xenografted in nude mouse assessed as tumor growth inhibition at 25 mg/kg, po qd for 4 weeks by bioluminescence imaging relative to control; assay type: functional, U-87MG ATCC; details: 672 h, read-out: TGI
[30] = biological target: G protein-coupled receptor kinase 5 (Homo sapiens) (UniProt P34947); assay: Inhibition of recombinant human full length GST-tagged GRK5 expressed in baculovirus expression system at 1 uM by Z'-Lyte assay relative to control
[31] = biological target: Serine/threonine-protein kinase 10 (Homo sapiens) (UniProt O94804); assay: Inhibition of LOK1 (unknown origin) at 0.1 uM by Z'-Lyte assay relative to control

Proto-oncogene tyrosine-protein kinase Src (Homo sapiens), sequence (P12931 2-536 limits assumed): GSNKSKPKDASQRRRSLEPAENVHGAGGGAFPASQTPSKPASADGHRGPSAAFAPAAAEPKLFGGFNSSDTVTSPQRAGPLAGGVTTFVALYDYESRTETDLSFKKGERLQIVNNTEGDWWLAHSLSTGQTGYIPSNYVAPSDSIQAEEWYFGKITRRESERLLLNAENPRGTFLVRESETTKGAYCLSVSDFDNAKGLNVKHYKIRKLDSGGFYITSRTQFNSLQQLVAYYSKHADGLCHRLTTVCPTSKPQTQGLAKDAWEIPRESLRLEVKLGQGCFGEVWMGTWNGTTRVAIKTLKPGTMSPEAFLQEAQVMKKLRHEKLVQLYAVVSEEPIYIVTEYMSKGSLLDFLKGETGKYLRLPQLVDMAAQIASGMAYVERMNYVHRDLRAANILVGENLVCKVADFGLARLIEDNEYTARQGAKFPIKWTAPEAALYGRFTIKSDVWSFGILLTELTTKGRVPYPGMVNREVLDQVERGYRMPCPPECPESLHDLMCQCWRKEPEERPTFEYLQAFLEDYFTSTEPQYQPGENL
Tyrosine-protein kinase receptor TYRO3 (Homo sapiens), sequence (Q06418 whole entry, the tested form may be a part): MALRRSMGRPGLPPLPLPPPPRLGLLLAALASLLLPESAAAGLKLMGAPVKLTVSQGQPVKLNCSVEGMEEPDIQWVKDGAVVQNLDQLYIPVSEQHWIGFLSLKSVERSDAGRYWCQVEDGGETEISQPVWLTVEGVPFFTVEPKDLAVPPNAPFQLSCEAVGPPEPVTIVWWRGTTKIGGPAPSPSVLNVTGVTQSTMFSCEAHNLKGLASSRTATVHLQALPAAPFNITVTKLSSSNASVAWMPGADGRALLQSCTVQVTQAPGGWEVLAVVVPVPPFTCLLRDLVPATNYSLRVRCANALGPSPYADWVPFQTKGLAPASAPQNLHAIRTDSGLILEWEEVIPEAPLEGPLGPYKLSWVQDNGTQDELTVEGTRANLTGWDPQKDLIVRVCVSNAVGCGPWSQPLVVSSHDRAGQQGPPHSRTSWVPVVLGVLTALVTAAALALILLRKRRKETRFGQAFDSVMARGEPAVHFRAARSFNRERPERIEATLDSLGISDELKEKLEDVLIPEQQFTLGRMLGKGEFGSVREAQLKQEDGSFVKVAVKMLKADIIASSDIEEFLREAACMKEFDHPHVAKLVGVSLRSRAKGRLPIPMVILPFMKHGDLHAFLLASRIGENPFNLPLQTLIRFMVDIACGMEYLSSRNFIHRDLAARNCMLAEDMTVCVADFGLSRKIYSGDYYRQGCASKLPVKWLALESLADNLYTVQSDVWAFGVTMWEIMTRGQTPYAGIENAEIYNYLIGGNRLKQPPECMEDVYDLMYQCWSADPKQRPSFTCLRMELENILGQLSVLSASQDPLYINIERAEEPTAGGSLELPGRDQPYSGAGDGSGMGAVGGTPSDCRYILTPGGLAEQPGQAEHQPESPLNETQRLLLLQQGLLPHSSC
Receptor tyrosine-protein kinase erbB-2 (Homo sapiens), sequence (P04626 whole entry, the tested form may be a part): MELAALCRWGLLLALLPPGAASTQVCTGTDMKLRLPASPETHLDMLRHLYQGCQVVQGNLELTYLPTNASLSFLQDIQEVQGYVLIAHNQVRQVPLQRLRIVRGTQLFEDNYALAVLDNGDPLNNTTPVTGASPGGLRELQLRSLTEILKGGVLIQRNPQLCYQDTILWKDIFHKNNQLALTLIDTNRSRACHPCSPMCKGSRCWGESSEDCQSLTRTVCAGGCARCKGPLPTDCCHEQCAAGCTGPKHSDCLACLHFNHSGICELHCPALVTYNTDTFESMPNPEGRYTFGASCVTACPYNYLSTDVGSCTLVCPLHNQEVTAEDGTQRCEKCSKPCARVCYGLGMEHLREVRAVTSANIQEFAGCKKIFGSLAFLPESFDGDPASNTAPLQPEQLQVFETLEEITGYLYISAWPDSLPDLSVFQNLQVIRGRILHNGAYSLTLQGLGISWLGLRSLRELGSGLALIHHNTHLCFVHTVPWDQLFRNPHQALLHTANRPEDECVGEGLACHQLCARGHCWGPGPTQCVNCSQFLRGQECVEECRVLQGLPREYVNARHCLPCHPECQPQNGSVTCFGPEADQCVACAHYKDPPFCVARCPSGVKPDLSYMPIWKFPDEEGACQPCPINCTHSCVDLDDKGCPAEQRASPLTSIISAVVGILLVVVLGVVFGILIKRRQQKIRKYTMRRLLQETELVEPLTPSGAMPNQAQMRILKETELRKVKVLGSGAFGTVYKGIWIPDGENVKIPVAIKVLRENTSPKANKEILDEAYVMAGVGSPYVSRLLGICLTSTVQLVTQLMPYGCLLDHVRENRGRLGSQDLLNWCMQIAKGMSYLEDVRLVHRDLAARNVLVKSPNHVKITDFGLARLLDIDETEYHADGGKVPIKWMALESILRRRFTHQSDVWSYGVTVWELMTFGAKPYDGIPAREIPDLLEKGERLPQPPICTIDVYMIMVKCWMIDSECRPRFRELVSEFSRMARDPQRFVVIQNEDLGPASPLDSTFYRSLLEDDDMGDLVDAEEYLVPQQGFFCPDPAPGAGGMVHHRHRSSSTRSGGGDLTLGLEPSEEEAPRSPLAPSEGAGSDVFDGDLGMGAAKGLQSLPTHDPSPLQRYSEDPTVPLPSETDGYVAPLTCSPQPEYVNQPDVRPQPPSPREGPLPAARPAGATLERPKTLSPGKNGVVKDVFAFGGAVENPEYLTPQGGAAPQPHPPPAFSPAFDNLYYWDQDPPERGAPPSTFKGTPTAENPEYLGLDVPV
Protein kinase C beta type (Homo sapiens), sequence (P05771 2-671 limits assumed): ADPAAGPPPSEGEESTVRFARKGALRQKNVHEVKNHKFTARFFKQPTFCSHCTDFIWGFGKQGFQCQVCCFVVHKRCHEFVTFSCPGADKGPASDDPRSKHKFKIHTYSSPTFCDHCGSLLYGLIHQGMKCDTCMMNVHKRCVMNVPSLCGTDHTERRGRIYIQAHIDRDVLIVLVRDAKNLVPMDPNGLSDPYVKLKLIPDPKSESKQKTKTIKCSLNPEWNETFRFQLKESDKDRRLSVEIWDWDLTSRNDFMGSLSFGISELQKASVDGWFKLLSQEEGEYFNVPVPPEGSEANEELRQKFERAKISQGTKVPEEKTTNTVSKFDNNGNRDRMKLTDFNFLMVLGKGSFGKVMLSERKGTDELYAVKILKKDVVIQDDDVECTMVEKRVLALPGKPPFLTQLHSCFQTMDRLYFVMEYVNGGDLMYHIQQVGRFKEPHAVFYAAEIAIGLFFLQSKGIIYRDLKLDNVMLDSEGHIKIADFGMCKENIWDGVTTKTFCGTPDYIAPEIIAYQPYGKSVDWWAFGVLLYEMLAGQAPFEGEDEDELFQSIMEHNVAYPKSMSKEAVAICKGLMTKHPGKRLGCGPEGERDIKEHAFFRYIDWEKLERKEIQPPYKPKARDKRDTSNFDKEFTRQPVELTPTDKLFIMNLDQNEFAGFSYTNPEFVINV
Mitogen-activated protein kinase kinase kinase 14, sequence (Q99558 whole entry, looked up, the tested form may be a part): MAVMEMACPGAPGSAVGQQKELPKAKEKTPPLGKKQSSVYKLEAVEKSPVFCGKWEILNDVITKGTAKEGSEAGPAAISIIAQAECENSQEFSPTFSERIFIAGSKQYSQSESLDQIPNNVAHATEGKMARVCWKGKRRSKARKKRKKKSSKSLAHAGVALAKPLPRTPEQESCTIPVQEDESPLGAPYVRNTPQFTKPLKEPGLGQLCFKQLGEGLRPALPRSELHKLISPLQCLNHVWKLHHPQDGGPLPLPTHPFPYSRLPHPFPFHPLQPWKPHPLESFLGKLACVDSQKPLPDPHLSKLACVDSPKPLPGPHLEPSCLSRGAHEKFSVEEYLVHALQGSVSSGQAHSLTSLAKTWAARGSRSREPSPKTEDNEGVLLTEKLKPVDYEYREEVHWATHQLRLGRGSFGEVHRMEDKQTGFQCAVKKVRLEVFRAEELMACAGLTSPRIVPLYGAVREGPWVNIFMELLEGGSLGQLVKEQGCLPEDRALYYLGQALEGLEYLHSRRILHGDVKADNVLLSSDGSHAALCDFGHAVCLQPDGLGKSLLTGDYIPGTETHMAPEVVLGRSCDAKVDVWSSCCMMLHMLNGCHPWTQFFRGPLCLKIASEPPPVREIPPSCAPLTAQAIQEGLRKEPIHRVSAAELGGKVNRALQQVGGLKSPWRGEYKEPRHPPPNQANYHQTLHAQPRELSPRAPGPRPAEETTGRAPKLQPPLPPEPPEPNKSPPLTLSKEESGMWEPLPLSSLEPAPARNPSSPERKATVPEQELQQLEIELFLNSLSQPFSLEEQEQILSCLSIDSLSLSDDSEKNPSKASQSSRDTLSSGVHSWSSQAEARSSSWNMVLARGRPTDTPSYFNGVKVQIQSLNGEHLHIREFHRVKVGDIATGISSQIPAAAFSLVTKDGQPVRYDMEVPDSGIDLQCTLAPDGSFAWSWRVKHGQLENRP
Serine/threonine-protein kinase PLK1 (Homo sapiens), sequence (P53350 whole entry, the tested form may be a part): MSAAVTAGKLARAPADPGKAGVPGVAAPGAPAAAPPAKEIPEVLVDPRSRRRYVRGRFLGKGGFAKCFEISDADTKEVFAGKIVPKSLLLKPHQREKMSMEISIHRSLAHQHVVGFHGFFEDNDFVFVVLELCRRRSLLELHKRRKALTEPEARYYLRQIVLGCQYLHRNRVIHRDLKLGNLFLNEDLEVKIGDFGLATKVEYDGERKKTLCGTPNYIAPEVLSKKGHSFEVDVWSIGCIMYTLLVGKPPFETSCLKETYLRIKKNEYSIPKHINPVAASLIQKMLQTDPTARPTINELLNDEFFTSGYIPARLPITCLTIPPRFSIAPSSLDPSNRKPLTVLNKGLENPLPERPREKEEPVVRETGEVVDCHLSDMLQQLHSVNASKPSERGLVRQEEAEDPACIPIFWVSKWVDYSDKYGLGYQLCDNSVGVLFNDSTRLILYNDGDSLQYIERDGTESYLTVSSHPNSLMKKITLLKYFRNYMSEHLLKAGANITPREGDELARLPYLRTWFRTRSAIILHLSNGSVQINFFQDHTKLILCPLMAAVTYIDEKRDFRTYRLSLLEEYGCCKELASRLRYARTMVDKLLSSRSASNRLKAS

## CC1=Nc2c(F)cc(-c3nc(Nc4ccc(C5CCN(C)CC5)cn4)ncc3F)cc2C12CCCC2 [CROZBACICLIB]
[1]
  inhibition: 9%
[2]
  inhibition: 4%
[3]
  inhibition: 4%
[4]
  inhibition: -8%
[5]
  inhibition: 3%
[6]
  inhibition: 1%
[7]
  inhibition: 4%
[8]
  inhibition: 105%
[9]
  inhibition in vivo at 50 mg/kg: 99%
[10]
  inhibition: 25%
[11]
  half-life: 426 min
[12]
  ILS at 12.5 mg/kg: 48%
[13]
  inhibition: 16%
[14]
  inhibition: 2%
[15]
  inhibition: -1%
[16]
  inhibition: -9%
[17]
  inhibition: 52%
[18]
  inhibition: 28%
[19]
  inhibition: 0%
[20]
  Tmax: 2 h
[21]
  inhibition: 3%
[22]
  inhibition: -3%
[23]
  inhibition: 12%
[24]
  inhibition: 9%
[25]
  inhibition: 2%
[26]
  inhibition: 7%
[27]
  inhibition: 10%
[28]
  inhibition: 7%
[29]
  inhibition in vivo at 25 mg/kg: 96%
[30]
  inhibition: 1%
[31]
  inhibition: 11%
